According to ChEMBL document CHEMBL4665852, “Hydroxylated Ethacrylic and Tiglic Acid Derivatives from the Stems and Branches of Enkianthus chinensis and Their Potential Anti-inflammatory Activities” (J Nat Prod, 2020):

Key:
Peritoneal macrophage [1] = test: Antiinflammatory activity in C57BL/6J mouse peritoneal macrophages assessed as inhibition of LPS-induced NO production at 10 uM preincubated for 1 hrs followed by LPS-stimulation and measured after 24 hrs by Griess reagent-based assay relative to control; type: functional; conditions: time 25 hrs
Peritoneal macrophage [2] = test: Antiinflammatory activity in C57BL/6J mouse peritoneal macrophages assessed as inhibition of LPS-induced NO production preincubated for 1 hrs followed by LPS-stimulation and measured after 24 hrs by Griess reagent-based assay relative to control; type: functional, cell-based
Peritoneal macrophage [3] = test: Cytotoxicity against C57BL/6J mouse Peritoneal macrophages assessed as reduction in cell growth incubated for 1 hr; type: cell-based

IC50 (Peritoneal macrophage [2]) | SMILES | inhibition at 10 µM (Peritoneal macrophage [1]) | Activity (Peritoneal macrophage [3])
1200 nM | C/C=C(\CO)C(=O)OC/C(=C\CO)C(=O)OC | 84.9% | Non-Toxic
2900 nM | CC[C@](O)(C(=O)OC/C(=C\CO)C(=O)OC)[C@@H](C)O | 64.3% | Non-Toxic
